Here are results for 2 compounds from PMC7504721, “Targeting the Initiator Protease of the Classical Pathway of Complement Using Fragment-Based Drug Discovery” (Molecules, 2020).

The assay has as its system classical pathway. Description: Classical pathway-specific ELISA-based complement inhibition assay (C4b deposition, IgM-coated plate, human serum). The conditions noted are these: for pIC50: non-linear regression; for inhibition of classical pathway (C4b deposition) relative to non-binding control compound: single 500 µM concentration, triplicate, 1% normal human serum, unpaired t-test p < 0.05. Type of assay: biochemical. Here is the method:
To carry out classical pathway ELISA-based inhibition assays, IgM was dissolved in coating buffer (100 mM Na2CO3/NaHCO3, pH 9.6) to a final concentration of 3 µg/mL and was dispensed into 96-well plates at 100 µL per well. Mannan was dissolved to 2 µg/mL and lipopolysaccharides (LPS) were dissolved to 10 µg/mL in coating buffer for use in lectin and alternative pathway inhibition assays, respectively. Immobilization was allowed to proceed overnight at 25 °C. The immobilization reagent was then removed, followed by three washes in washing buffer (50 mM Tris pH 8.0, 200 mM NaCl, 0.05% (v/v) Tween-20), and blocked using 100 µL of 1% (w/v) bovine serum albumin in PBS-T for 1 h at 37°C. Blocking buffer was removed and plates were washed three times in washing buffer. Next, 500 µM of each compound, 5% (v/v) DMSO, and 1% (v/v) normal human serum (Innovative Research) (final concentrations) were dissolved in classical/lectin pathway ELISA buffer (20 mM HEPES (pH 7.3), 0.1% (w/v) gelatin, 140 mM NaCl, 2 mM CaCl2, 0.5 mM MgCl2) and added to the IgM-coated plate for 1 h at 37 °C. For the lectin pathway-specific ELISAs shown in Figure 5D, we used C1q-depleted serum from CompTech at 2% (v/v) and thus the classical pathway assays for this analysis were also performed using serum from CompTech at 2% (v/v). For the alternative pathway, 20% (v/v) normal human serum (CompTech) (final concentration) and alternative pathway ELISA buffer (20 mM HEPES, (pH 7.5), 0.1% (w/v) gelatin, 140 mM NaCl, 2 mM CaCl2, 0.5 mM MgCl2) were used in place of classical/lectin pathway ELISA buffer. Plates were then washed three times in wash buffer and each well was filled with 100 µL of α-C4 (HYB 162-02, Santa Cruz Biotechnology) diluted 1:300 for classical and lectin pathway assays and 100 µL of C3b (WM-1, Sigma) diluted 1:300 for alternative pathway assays. Plates were again incubated at 37 °C for 1 h, washed three times, filled with 100 µL of HRP-conjugated goat-α-mouse secondary antibody (diluted 1:3000) (Thermo Scientific, Waltham, MA, USA), and rocked gently for 1 h at 25 °C. After three more washes, 50 µl of substrate (1-step Ultra TMB, Thermo Scientific, Waltham, MA, USA) was added to each well and rocked for 15 min in the dark at 25 °C. The reaction was stopped with 50 µL of 0.16 M sulfuric acid, and the plate was read at 450 nm using an EnSight multimode plate reader (Perkin-Elmer). Each column contained a positive control for full complement activity (5% (v/v) blank DMSO with 1% (v/v) serum) and a negative control for no complement activity (5% (v/v) blank DMSO and no serum). Positive controls (1% (v/v) serum, no inhibitor) were defined as 100% C4b or C3b signal whereas negative controls (no serum) were defined as 0% C4b or C3b signal for each column. Compounds that inhibited complement deposition relative to the control were then evaluated using the same assay setup across a two-fold variable concentration series for each compound (7.8–500 µM). […] All experiments were performed no less than three times.
Statistical analyses were performed using GraphPad Prism version 8. For complement inhibition assays, measures of statistical significance for single-dose experiments were assessed using unpaired Student’s t-tests compared to no inhibitor controls (pathway ELISAs) or non-binding control compounds (classical pathway ELISA). Statistical significance was defined as p < 0.05. Calculation of IC50 values from dose-dependent complement assays were obtained by non-linear regression analysis using a using an inhibitor vs. response model and with 95% confidence intervals reported. For non-linear regression analyses, the top and bottom of each curve were constrained to 100 and 0, respectively.
A general note: In an ELISA, binding on a coated surface is turned into a signal by an enzyme label.

Setting [1] is: dose-response 7.8–500 µM, top and bottom constrained to 100 and 0, read-out: IC50, classical pathway-specific ELISA.
Where [2] appears, read: n = 9 (CMP-1611), n = 7 (CMP-1696), read-out: 95% confidence interval of IC50, classical pathway-specific ELISA.

pIC50: −log10 of the molar value. Read-outs that look alike come from different tables or passages of the source.

Usually pIC50 stands for the negative decadic logarithm of the IC50, by convention in mol/L. As to `CN(C)c1cc(N2CCCC(N)C2)ncn1` (stereo not drawn) [CMP-1611], the “inhibition of classical pathway (C4b deposition) relative to non-binding control compound” value was “statistically significant inhibitory activity”. For the same compound, the pIC50 under setting [1] was 3.18. Moreover, the pIC50 under setting [2] was 3.10 to 3.25.

On to `COCc1nc(-c2ccc(OC3CNC3)cc2)no1` [CMP-1696], for which the “inhibition of classical pathway (C4b deposition) relative to non-binding control compound” value is on record as “statistically significant inhibitory activity”. The negative-log IC50 (pIC50) under setting [1] was 3.28. Further, the negative logarithm of the IC50 (pIC50) under setting [2] is 3.17 to 3.39.
